Experimental data: the COVID Moonshot data (paper PMC7615835)
Values joined by “and” are separate entries in the source; they are usually repeats but may differ in a detail not shown here. Identical values can stand only once.

Target: SARS-CoV-2 Main Protease (SARS-CoV-2) (UniProt P0DTD1)

Compound | IC50
O=C(Cc1cc(Cl)cc(Nc2ncccc2C(F)(F)F)c1)Nc1cncc2ccccc12 | 1.94 µM
COCOc1ccc(N(C(=O)c2cocn2)C(C(=O)NCCc2cccc(F)c2)c2cccnc2)cc1 (stereo not drawn) | 13.2 µM
CNC(=O)CN1CC(C(=O)Nc2cncc3c2CCCC3)c2cc(Cl)ccc2C1=O (stereo not drawn) | 0.448 µM
C=CC(=O)NCc1ccc(C(=O)N[C@H](CO)c2ccc(Br)c(F)c2)cc1 (stereo in doubt) | > 99.5 µM
COCc1csc(-c2nnc(-c3sc(-c4ccccc4)nc3C)o2)c1 | > 99.5 µM
CC(C)(C#N)CS(=O)(=O)N1Cc2ccc(Cl)cc2C2(CCN(c3cncc4ccccc34)C2=O)C1 (stereo not drawn) | 0.448 µM
CNC(=O)CN1Cc2ccc(Cl)cc2C(C(=O)Nc2cncc3cc(NS(C)(=O)=O)ccc23)C1 (stereo not drawn) | 0.0728 µM
C=CC(=O)N(c1ccc(C(C)(C)C)cc1)C(C(=O)Nc1ccc2c(c1)OCO2)c1cccnc1 (stereo not drawn) | 36.1 µM
O=C(Cc1cc(Cl)cc(Nc2ccccc2I)c1)Nc1cncc2ccccc12 | 2.17 µM
O=C(Cn1nnc2ccccc21)Nc1cccc(Cl)c1 | > 99.5 µM
O=C(Cc1cc(Cl)cc(Nc2ccc(F)c(F)c2Br)c1)Nc1cncc2ccccc12 | 1.94 µM
CC(C)(C)c1ccc(N(C(=O)c2cnc(C3CCOC3)s2)C(C(=O)NCCc2cccc(F)c2)c2cccnc2)cc1 (stereo not drawn) | > 99.5 µM
Cc1ccncc1NC(=O)C(C)(C)c1cccc(Cl)c1 | 95.8 µM and 98.1 µM
Cc1nnc(C2CCN(C(=O)c3ccc(Br)cc3)CC2)[nH]1 | > 99.5 µM
C=CC(=O)N(c1ccc(C2(C)CC2)cc1)C(C(=O)Nc1ccc(Br)cc1)c1cccnc1 (stereo not drawn) | 83.7 µM and 81.2 µM
Cn1nnnc1C1=CCN(C(=O)CC2(C(=O)Nc3cncc4ccccc34)CCOc3ccc(Cl)cc32)CC1 (stereo not drawn) | 9.18 µM
O=C(Cc1cc(Cl)cc(NCc2cccc(F)c2Cl)c1)Nc1cncc2ccccc12 | 2.22 µM
O=C(Nc1cncc2ccccc12)C1CN(S(=O)(=O)[C@@H]2CCC[C@H]2O)Cc2ccc(Cl)cc21 (stereo in doubt) | 0.129 µM and 0.146 µM
CCN(C)S(=O)(=O)N1Cc2ccc(Cl)cc2C2(CCN(c3cncc4ccccc34)C2=O)C1 (stereo not drawn) | 0.563 µM

Compound | IC50
COc1ncncc1C(C(=O)NCCc1cccc(F)c1)N(C(=O)c1cocn1)c1ccc(C(C)(C)C)cc1 (stereo not drawn) | 8.43 µM
COc1ccc2n[nH]c(NC(=O)Cc3cccc(Cl)c3)c2c1 | > 99.5 µM
O=C(C[C@@]1(C(=O)Nc2cncc3ccccc23)CCOc2ccc(Cl)cc21)N1CCN(C2CCOC2)CC1 (stereo in doubt) | 46.5 µM
O=C(CCl)Nc1cccc(N2CCCC2=O)c1 | 72 µM and 68.7 µM
Cn1ccnc1CN(C(=O)CC1(C(=O)Nc2cncc3ccccc23)CCOc2ccc(Cl)cc21)C1CC1 (stereo not drawn) | 5.05 µM
Cc1cccc(CC2CCN(C(=O)CCl)CC2)c1 | 14.7 µM
CN(C)C(=O)C[C@@]1(C(=O)Nc2cncc3ccccc23)CCOc2ccc(Cl)cc21 (stereo in doubt) | 20.5 µM
O=C(Cc1cc(Cl)cc(B(O)O)c1)Nc1cncc2ccccc12 | 4.74 µM
O=C(Cc1cc(Cl)cc(Nc2cc(Br)cc(C(F)(F)F)c2)c1)Nc1cncc2ccccc12 | 1.87 µM
O=C(Cc1cc(Cl)cc(Nc2ccc3c(c2)OC(F)(F)O3)c1)Nc1cncc2ccccc12 | 2.07 µM
CS(=O)(=O)c1ccc2c(NC(=O)C3CN(CC(=O)NC4COC4)C(=O)c4ccc(Cl)cc43)cncc2c1 (stereo not drawn) | 0.866 µM
CC1(CS(=O)(=O)N2Cc3ccc(Cl)cc3C3(CCN(c4cncc5ccccc45)C3=O)C2)CC1 (stereo not drawn) | 0.265 µM
O=C(CCl)N1CCN(S(=O)(=O)c2ccsc2)[C@H](C(=O)N2CCOCC2)C1 (stereo in doubt) | 2.88 µM
COc1ccccc1NCCNC(=O)c1cc(=O)[nH]c2ccccc12 | > 99.5 µM
CC(C)(C)c1ccc(N(C(=O)c2cocn2)C(C(=O)NCC(=O)Nc2cccc([N+](=O)[O-])c2)c2cccnc2)cc1 (stereo not drawn) | 14.4 µM
C=CC(=O)N(Cc1ccccc1Cl)C(C(=O)NC)c1cccnc1 (stereo not drawn) | > 99.5 µM
CC(C)(C)c1ccc(N(C(=O)c2ccco2)C(C(=O)NCCc2cccc(F)c2)c2[nH]nc3ccccc23)cc1 (stereo not drawn) | > 99.5 µM
O=C(Cc1cc(Cl)cc(N2CCC(O)(c3ccc(Cl)cc3)CC2)c1)Nc1cncc2ccccc12 | 5.21 µM
Cc1cc(C)nc(NC2CCN(C(=O)CCl)CC2)n1 | 27.6 µM
